Where a SMILES comes first, the peptide text is derived from it. [ ]: non-standard residue; d: D form. Abu(4,4,4-F3) = N[C@@H](CC(F)(F)F)C(=O)O; Abu(4,4-F2) = N[C@@H](CC(F)F)C(=O)O; 4Abz = Nc1ccc(C(=O)O)cc1; Abu = CC[C@H](N)C(=O)O
Assays:
β-trypsin (pancreas) = experiment: Peptide digestion assay with β-trypsin; assay type: in vitro ADME; settings: after 2 h; 500 μM peptide, trypsin 0.075 μM, 50 mM bis-tris propane + 20 mM CaCl2, pH 8, 37 °C, 300 rpm; HPLC (DAD-280 nm); triplicates
Method: (§1) Freeze-dried peptides AbuK16, MfeGlyK16, DfeGlyK16, and TfeGlyK16 were dissolved in 100 μL of buffer (50 mM bis-tris propane + 20 mM CaCl2, pH 8) to a final concentration of 500 μM. The peptides were incubated with different proteolytic enzymes (10 μL in buffer): trypsin (0.075 μM), elastase (0.45 μM), proteinase K (0.075 μM), and bromelain (4.5 μM). The experiments were incubated at either 37 °C (trypsin and proteinase K) or 30 °C (elastase and bromelain) in a Thriller thermoshaker-incubator (VWR International, Radnor, PA, USA) with shaking at 300 rpm. Aliquots (15 μL) were taken at fixed time points and quenched with 90 μL of a solution of 30% acetic acid in water containing 133 μM Ac-[4]Abz-Gly-OH as a reference. Peptide degradation was monitored by high-performance liquid chromatography (HPLC) using a Hitachi Primaide UV-HPLC system (VWR/Hitachi, Darmstadt, Germany). A Kinetex RP-C18 ([…], 100 Å, 250 × 4.6 mm, Phenomenex, USA) column and a SecurityGuard Cartridge Kit equipped with a C18 cartridge (4 × 3.0 mm, Phenomenex, USA) as a pre-column was used. The mobile phases employed were 0.1% aqueous […] (TFA) (solvent A) and acetonitrile + 0.1% TFA (solvent B). The solvent conditions for analysis were as follows: 0–5 min, 5% B; 5–20 min, 5–90% B; 20–23 min, 90–100% B; 23–25 min, 100% B; 25–27 min, 100–5% B; and 27–30 min, 5% B. In all cases, the peaks corresponding to each peptide sample (full-length peptides) and the reference sample were integrated and used to determine the amount of the substrate still present in solution. The content of starting material after 5 min was termed as absolute amount for simplicity. All experiments were performed in triplicates, and error bars were obtained as standard deviations of measurements.
(§2) Figure 2 Proteolytic digestion of AbuK16, MfeGlyK16, DfeGlyK16, and TfeGlyK16 by the serine proteases β-trypsin, elastase, proteinase K, and bromelain (pineapple stem) in 50 mM bis-tris propane + 20 mM CaCl2, pH 8, at 37 °C (β-trypsin and proteinase K) or 30 °C (elastase and bromelain). Real-time detection of peptide proteolysis and calculation of remaining peptide amounts were accomplished by HPLC analysis (DAD-280 nm).

[1] = biological target: T1, bromelain (pineapple stem) (Ananas comosus, UniProt P14518); experiment: Peptide digestion assay with bromelain; assay type: in vitro ADME; settings: 500 μM peptide, bromelain 4.5 μM, 50 mM bis-tris propane + 20 mM CaCl2, pH 8, 30 °C, HPLC (DAD-280 nm); for digestion by bromelain: 300 rpm, triplicates
T1 construct: purchased Sigma-Aldrich (Steinheim, Germany); host or cells: pineapple stem
T1 sequence (P14518 1-212): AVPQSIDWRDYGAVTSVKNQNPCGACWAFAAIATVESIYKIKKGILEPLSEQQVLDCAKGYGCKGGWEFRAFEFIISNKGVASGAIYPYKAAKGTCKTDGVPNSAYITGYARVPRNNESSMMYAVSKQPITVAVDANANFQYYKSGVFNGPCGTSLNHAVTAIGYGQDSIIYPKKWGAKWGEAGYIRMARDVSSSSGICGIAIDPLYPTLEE
Method: as §1, §2

elastase (pancreas) = biological target: T2, elastase (pancreas) (Sus scrofa, UniProt P00772); experiment: Peptide digestion assay with elastase; assay type: in vitro ADME; settings: after 4 h; 500 μM peptide, elastase 0.45 μM, 50 mM bis-tris propane + 20 mM CaCl2, pH 8, 30 °C, 300 rpm; HPLC (DAD-280 nm); triplicates
T2 construct: purchased Sigma-Aldrich (Steinheim, Germany); host or cells: pancreas
T2 sequence (P00772 27-266): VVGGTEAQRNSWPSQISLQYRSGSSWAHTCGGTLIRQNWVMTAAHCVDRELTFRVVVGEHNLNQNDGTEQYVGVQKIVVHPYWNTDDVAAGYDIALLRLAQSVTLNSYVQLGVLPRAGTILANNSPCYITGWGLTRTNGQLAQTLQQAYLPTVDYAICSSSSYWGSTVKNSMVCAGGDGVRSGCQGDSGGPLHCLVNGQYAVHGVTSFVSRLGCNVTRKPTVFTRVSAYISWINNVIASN
Method: as §1, with “The solvent conditions for analysis were as follows: 0–5 min, 5% B; 5–20 min, 5–90% B; 20–23 min, 90–100% B; 23–25 min, 100% B; 25–27 min, 100–5% B; and 27–30 min, 5% B. In all cases, the peaks corresponding to each peptide sample (full-length peptides) and the reference sample were integrated and used to determine the amount of the substrate still present in solution. The content of starting material after 5 min was termed as absolute amount for simplicity. All experiments were performed in triplicates, and error bars were obtained as standard deviations of measurements.” left out

proteinase K = biological target: T3, proteinase K (Parengyodontium album, UniProt P06873); experiment: Peptide digestion assay with proteinase K; assay type: in vitro ADME, Tritirachium album; settings: 500 μM peptide, proteinase K 0.075 μM, 50 mM bis-tris propane + 20 mM CaCl2, pH 8, 37 °C, HPLC (DAD-280 nm), triplicates; for proteolytic stability against proteinase K: after 4 h, 300 rpm
T3 construct: purchased Sigma-Aldrich (Steinheim, Germany)
T3 sequence (P06873 106-384): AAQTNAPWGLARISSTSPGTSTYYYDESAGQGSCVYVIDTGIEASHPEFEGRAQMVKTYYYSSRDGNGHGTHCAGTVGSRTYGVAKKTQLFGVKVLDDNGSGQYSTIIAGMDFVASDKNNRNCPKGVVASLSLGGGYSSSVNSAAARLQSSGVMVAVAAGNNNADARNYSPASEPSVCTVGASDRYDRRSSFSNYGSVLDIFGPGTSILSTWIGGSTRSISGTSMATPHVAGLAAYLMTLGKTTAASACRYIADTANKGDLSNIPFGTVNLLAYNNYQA
Method: as §1
Figure 2 Proteolytic digestion of AbuK16, MfeGlyK16, DfeGlyK16, and TfeGlyK16 by the serine proteases β-trypsin, elastase, proteinase K, and bromelain (pineapple stem) in 50 mM bis-tris propane + 20 mM CaCl2, pH 8, at 37 °C (β-trypsin and proteinase K) or 30 °C (elastase and bromelain). […]

| Structure (SMILES) | remaining full-length peptide after digestion by β-trypsin (β-trypsin (pancreas)) | digestion by bromelain [1] | remaining full-length peptide after digestion by elastase (elastase (pancreas)) | proteolytic stability against proteinase K (proteinase K) | digestion by proteinase K (proteinase K; within 24 h) | remaining peptide after digestion by bromelain ([1]; after 3 days incubation) |
| --- | --- | --- | --- | --- | --- | --- |
| CC[C@H](NC(C)=O)C(=O)N[C@@H](CCCCN)C(=O)N[C@@H](CC)C(=O)N[C@@H](CCCCN)C(=O)N[C@@H](CC)C(=O)N[C@@H](CCCCN)C(=O)N[C@@H](CC)C(=O)N[C@@H](CCCCN)C(=O)N[C@@H](CC)C(=O)N[C@@H](CCCCN)C(=O)N[C@@H](CC)C(=O)N[C@@H](CCCCN)C(=O)N[C@@H](CC)C(=O)N[C@@H](CCCCN)C(=O)N[C@@H](CC)C(=O)N[C@@H](CCCCN)C(=O)Nc1ccc(C(N)=O)cc1 [AbuK16, Ac-(Abu-Lys)8-[4]Abz-NH2] (Ac-[Abu]K[Abu]K[Abu]K[Abu]K[Abu]K[Abu]K[Abu]K[Abu]K[4Abz]-NH2) | comparably higher amounts of peptide were detected | digested | – | – | – | – |
| CC(=O)N[C@@H](CC(F)F)C(=O)N[C@@H](CCCCN)C(=O)N[C@@H](CC(F)F)C(=O)N[C@@H](CCCCN)C(=O)N[C@@H](CC(F)F)C(=O)N[C@@H](CCCCN)C(=O)N[C@@H](CC(F)F)C(=O)N[C@@H](CCCCN)C(=O)N[C@@H](CC(F)F)C(=O)N[C@@H](CCCCN)C(=O)N[C@@H](CC(F)F)C(=O)N[C@@H](CCCCN)C(=O)N[C@@H](CC(F)F)C(=O)N[C@@H](CCCCN)C(=O)N[C@@H](CC(F)F)C(=O)N[C@@H](CCCCN)C(=O)Nc1ccc(C(N)=O)cc1 [DfeGlyK16, Ac-(DfeGly-Lys)8-[4]Abz-NH2] (Ac-[Abu(4,4-F2)]K[Abu(4,4-F2)]K[Abu(4,4-F2)]K[Abu(4,4-F2)]K[Abu(4,4-F2)]K[Abu(4,4-F2)]K[Abu(4,4-F2)]K[Abu(4,4-F2)]K[4Abz]-NH2) | mostly consumed | digested | lower amounts of DfeGlyK16 and TfeGlyK16 detected than AbuK16 and MfeGlyK16 | – | – | – |
| CC(=O)N[C@@H](CCF)C(=O)N[C@@H](CCCCN)C(=O)N[C@@H](CCF)C(=O)N[C@@H](CCCCN)C(=O)N[C@@H](CCF)C(=O)N[C@@H](CCCCN)C(=O)N[C@@H](CCF)C(=O)N[C@@H](CCCCN)C(=O)N[C@@H](CCF)C(=O)N[C@@H](CCCCN)C(=O)N[C@@H](CCF)C(=O)N[C@@H](CCCCN)C(=O)N[C@@H](CCF)C(=O)N[C@@H](CCCCN)C(=O)N[C@@H](CCF)C(=O)N[C@@H](CCCCN)C(=O)Nc1ccc(C(N)=O)cc1 [MfeGlyK16, Ac-(MfeGly-Lys)8-[4]Abz-NH2] | comparably higher amounts of peptide were detected | digested | – | higher proteolytic stability of MfeGlyK16 than that for AbuK16 and DfeGlyK16 | – | – |
| CC(=O)N[C@@H](CC(F)(F)F)C(=O)N[C@@H](CCCCN)C(=O)N[C@@H](CC(F)(F)F)C(=O)N[C@@H](CCCCN)C(=O)N[C@@H](CC(F)(F)F)C(=O)N[C@@H](CCCCN)C(=O)N[C@@H](CC(F)(F)F)C(=O)N[C@@H](CCCCN)C(=O)N[C@@H](CC(F)(F)F)C(=O)N[C@@H](CCCCN)C(=O)N[C@@H](CC(F)(F)F)C(=O)N[C@@H](CCCCN)C(=O)N[C@@H](CC(F)(F)F)C(=O)N[C@@H](CCCCN)C(=O)N[C@@H](CC(F)(F)F)C(=O)N[C@@H](CCCCN)C(=O)Nc1ccc(C(N)=O)cc1 [TfeGlyK16, Ac-(TfeGly-Lys)8-[4]Abz-NH2] (Ac-[Abu(4,4,4-F3)]K[Abu(4,4,4-F3)]K[Abu(4,4,4-F3)]K[Abu(4,4,4-F3)]K[Abu(4,4,4-F3)]K[Abu(4,4,4-F3)]K[Abu(4,4,4-F3)]K[Abu(4,4,4-F3)]K[4Abz]-NH2) | mostly consumed | resistant to this protease | lower amounts of DfeGlyK16 and TfeGlyK16 detected than AbuK16 and MfeGlyK16 | pronounced stability | largely digested | noticeable amounts of this peptide were still present |
